The record followed here is patent US10844032B2, “Substituted benzofuran, benzothiophene and indole Mcl-1 inhibitors” (Vanderbilt University, priority 2012, dated 2020).

As a reminder, the Ki is a measure of affinity in units of concentration, obtained from inhibition or displacement.

Where only a bound is given, the exact number is not on record here.

The target of one assay is recombinant Mcl-1 (residues 172-327) (Homo sapiens (Human), UniProt Q07820). The assay is described as follows: Bak peptide fluorescence polarization anisotropy competition assay, Mcl-1. It is filed as binding. As to conditions: Table 2, Ki range; FITC-Bak peptide 10 nM, Mcl-1 14 nM; read-out: Ki for inhibition of Mcl-1.
Sequence of recombinant Mcl-1 (residues 172-327) (Q07820 172-327): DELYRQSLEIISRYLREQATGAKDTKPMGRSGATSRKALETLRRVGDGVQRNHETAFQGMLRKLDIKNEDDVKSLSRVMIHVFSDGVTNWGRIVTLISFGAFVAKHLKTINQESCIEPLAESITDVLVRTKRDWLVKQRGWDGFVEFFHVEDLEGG
Regarding `Cc1cc(OCCCc2c(C(=O)NS(=O)(=O)c3ccccc3)[nH]c3c(-c4ccnn4C)cccc23)cc(C)c1Cl` [Example 100, 3-(3-(4-chloro-3,5-dimethylphenoxy)propyl)-7-(1-methyl-1H-pyrazol-5-yl)-N-(phenylsulfonyl)-1H-indole-2-carboxamide], the inhibition constant (Ki) was ≤ 100 nM.

In the case of `CC(=O)N1CCN(c2ccc(OCc3nn(C)c(C)c3-c3cccc4c(CCCOc5cc(C)c(Cl)c(C)c5)c(C(=O)NS(=O)(=O)c5ccccc5)n(Cc5cccnc5)c34)cc2)CC1` [Example 124, 7-(3-((4-(4-acetylpiperazin-1-yl)phenoxy)methyl)-1,5-dimethyl-1H-pyrazol-4-yl)-3-(3-(4-chloro-3,5-dimethylphenoxy)propyl)-N-(phenylsulfonyl)-1-(pyridin-3-ylmethyl)-1H-indole-2-carboxamide], the inhibition constant (Ki) was ≤ 100 nM.

The same assay, now with this note: read-out: Ki for inhibition of Mcl-1.
As to `COc1cccc(Cn2cccc2C(=O)NCCS(=O)(=O)NC(=O)c2[nH]c3cc(Cl)ccc3c2CCCOc2cc(C)c(Cl)c(C)c2)c1` [Example 247, 6-chloro-3-(3-(4-chloro-3,5-dimethylphenoxy)propyl)-N-((2-(1-(3-methoxybenzyl)-1H-pyrrole-2-carboxamido)ethyl)sulfonyl)-1H-indole-2-carboxamide], the Ki lay within 101 to 299 nM.

With `Cc1cc(OCCCc2c(C(=O)NS(=O)(=O)c3ccccc3)n(C)c3cc(Cl)ccc23)cc(C)c1Cl` [Example 269, 6-chloro-3-(3-(4-chloro-3,5-dimethylphenoxy)propyl)-1-methyl-N-(phenylsulfonyl)-1H-indole-2-carboxamide], the Ki is 301 to 500 nM. As to `Cc1cc(OCCCc2c(C(=O)NS(=O)(=O)CCNC(=O)Cc3c[nH]c4ccccc34)[nH]c3ccccc23)cc(C)c1Cl` [Example 177, N-((2-(2-(1H-indol-3-yl)acetamido)ethyl)sulfonyl)-3-(3-(4-chloro-3,5-dimethylphenoxy)propyl)-1H-indole-2-carboxamide], the Ki is 101 to 299 nM. With `Cc1cc(OCCCc2c(C(=O)NS(=O)(=O)C3CCN(C(=O)c4cccc(Oc5ccccc5)c4)CC3)[nH]c3cc(Cl)ccc23)cc(C)c1Cl` [Example 213, 6-chloro-3-(3-(4-chloro-3,5-dimethylphenoxy)propyl)-N-((1-(3-phenoxybenzoyl)piperidin-4-yl)sulfonyl)-1H-indole-2-carboxamide], the Ki was 301 to 500 nM. For the compound `COCc1nn(C)c(C)c1-c1cccc2c(CCCOc3cc(C)c(Cl)c(C)c3)c(C(=O)NS(=O)(=O)c3ccccc3)n(Cc3cccnc3)c12` [Example 128, 3-(3-(4-Chloro-3,5-dimethylphenoxy)propyl)-7-(3-(methoxymethyl)-1,5-dimethyl-1H-pyrazol-4-yl)-N-(phenylsulfonyl)-1-(pyridin-3-ylmethyl)-1H-indole-2-carboxamide], the Ki was in the range of 101 to 299 nM. Turning to `Cc1cc(OCCCc2c(C(=O)NS(C)(=O)=O)sc3cc(Cl)ccc23)cc(C)c1Cl` [Example 72, 6-chloro-3-(3-(4-chloro-3,5-dimethylphenoxy)propyl)-N-(methylsulfonyl)benzo[b]thiophene-2-carboxamide], the Ki is 1000 to 9990 nM. As to `Cc1cc(OCCCc2c(C(=O)NS(=O)(=O)CCNC(=O)C3CCCCC3)n(Cc3cccnc3)c3cc(Cl)ccc23)cc(C)c1Cl` [Example 275, 6-chloro-3-(3-(4-chloro-3,5-dimethylphenoxy)propyl)-N-((2-(cyclohexanecarboxamido)ethyl)sulfonyl)-1-(pyridin-3-ylmethyl)-1H-indole-2-carboxamide], the inhibition constant (Ki) is 101 to 299 nM. Turning to `Cc1ccccc1-c1ccc2c(CCCOc3cccc4ccccc34)c(C(=O)O)sc2c1` [Example 12, 3-(3-(naphthalen-1-yloxy)propyl)-6-(o-tolyl)benzo[b]thiophene-2-carboxylic acid], the inhibition constant Ki lay in the range of 1000 to 9990 nM. On to `O=C(CCc1ccccc1)NCCS(=O)(=O)NC(=O)c1[nH]c2cc(Cl)ccc2c1CCCOc1cccc2ccccc12` [Example 240, 6-chloro-3-(3-(naphthalen-1-yloxy)propyl)-N-((2-(3-phenylpropanamido)ethyl)sulfonyl)-1H-indole-2-carboxamide], for which the Ki lay in the range of 301 to 500 nM.
